Our source for the IC50 values is patent US7759337B2, “Phthalazine compounds and methods of use” (Amgen Inc., priority 2005, dated 2010).

What is called IC50 is the point on the concentration scale where inhibition reaches its midpoint. A lower IC50 goes with greater potency.

This test relates to production of TNF by monocytes activated with bacterial lipopolysaccharide (LPS). In words: Lipopolysaccharide-activated monocyte TNF production assay. The class given is cell-based. The settings on record: Homo sapiens; whole blood monocyte assay (LPS induced TNF release). The essentials: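 Adherent human PBMC-derived monocytes preincubated 60 min with nine two-fold compound dilutions, then stimulated with E. coli K532 LPS (30 ng/mL in the added medium) for 4 h at 37 °C. Supernatant TNF measured by sandwich ELISA; IC50 is the compound concentration halving TNF production, from second-order polynomial fits.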
Turning to `Cc1ccc(C(N)=O)cc1-c1ccc2c(Oc3cccc(Cl)c3)nncc2c1` [Example 307, 3-[1-(3-chlorophenoxy)phthalazin-6-yl]-4-methylbenzamide], the 50% inhibitory concentration (IC50) was ≤ 5 µM.
For the molecule `Cc1ccc(C(N)=O)cc1-c1ccc2c(N3CCCC[C@H]3C)nncc2c1` [Example 182, 4-methyl-3-{1-[(2R)-2-methylpiperidin-1-yl]phthalazin-6-yl}benzamide], the 50% inhibitory concentration (IC50) is ≤ 5 µM.
In the case of `Cc1ccccc1Oc1nncc2cc(-c3cc(C(N)=O)ccc3C)ccc12` [Example 299, 4-methyl-3-[1-(2-methylphenoxy)phthalazin-6-yl]benzamide] it was ≤ 5 µM; in that of `Cc1cc(C)c(-c2nncc3cc(-c4cc(C(=O)NC5CC5)ccc4C)ccc23)c(C)c1` [Example 121, N-cyclopropyl-3-(1-mesitylphthalazin-6-yl)-4-methylbenzamide], ≤ 5 µM.
In the case of `Cc1ccc(C(N)=O)cc1-c1ccc2c(-c3ccc(CN4CCOCC4)cc3)nncc2c1` [Example 203, 4-methyl-3-{1-[4-(morpholin-4-ylmethyl)phenyl]phthalazin-6-yl}benzamide], the concentration for half-maximal inhibition (IC50) is ≤ 5 µM.
Next, `Cc1ccc(C(=O)NC2CC2)cc1-c1ccc2c(N3CCNC(=O)[C@H]3C)nncc2c1` [Example 100, N-cyclopropyl-4-methyl-3-{1-[(2R)-2-methyl-3-oxopiperazin-1-yl]phthalazin-6-yl}benzamide]: ≤ 5 µM; `O=C(NC1CC1)c1ccc(F)c(-c2ccc3c(N4CCOCC4)nncc3c2)c1` [Example 72, N-Cyclopropyl-4-fluoro-3-(1-morpholin-4-ylphthalazin-6-yl)benzamide]: ≤ 5 µM.
On to `COc1ncncc1-c1nncc2cc(-c3cc(C(N)=O)ccc3C)ccc12` [Example 196, 3-[1-(4-methoxypyrimidin-5-yl)phthalazin-6-yl]-4-methylbenzamide], for which the half-maximal inhibitory concentration (IC50) is ≤ 5 µM.
Next, `Cc1ccc(C(N)=O)cc1-c1ccc2c(N3CCN4C(=O)OC[C@@H]4C3)nncc2c1` [Example 280, 3-{1-[(8aS)-3-oxotetrahydro[1,3]oxazolo[3,4-a]pyrazin-7(1H)-yl]phthalazin-6-yl}-4-methylbenzamide]: ≤ 5 µM.
Next, `CNC(=O)c1ccc(C)c(-c2ccc3c(N4CCOCC4)nncc3c2)c1` [Example 181, N,4-dimethyl-3-(1-morpholin-4-ylphthalazin-6-yl)benzamide]: ≤ 5 µM; `Cc1ccc(C(=O)NC2CC2)cc1-c1ccc2c(-c3ccc(Cl)cc3)nncc2c1` [Example 209, 3-[1-(4-chlorophenyl)phthalazin-6-yl]-N-cyclopropyl-4-methylbenzamide]: ≤ 5 µM; `Cc1ccc(-c2nncc3cc(-c4cc(C(=O)NC5CC5)ccc4C)ccc23)cc1` [Example 131, N-cyclopropyl-4-methyl-3-[1-(4-methylphenyl)phthalazin-6-yl]benzamide]: ≤ 5 µM.
As to `Cc1ccc(C(=O)NC2CC2)cc1-c1ccc2c(N3CCCC[C@H]3C)nncc2c1` [Example 180, N-cyclopropyl-4-methyl-3-{1-[(2R)-2-methylpiperidin-1-yl]phthalazin-6-yl}benzamide], the concentration for half-maximal inhibition (IC50) was ≤ 5 µM.
For `Cc1ccc(C(=O)NC2CC2)cc1-c1ccc2c(-c3ccc(Cl)cc3C)nncc2c1` [Example 257, 3-[1-(4-chloro-2-methylphenyl)phthalazin-6-yl]-N-cyclopropyl-4-methylbenzamide], the half-maximal inhibitory concentration (IC50) was ≤ 5 µM.
`COc1cc(F)ccc1-c1nncc2cc(-c3cc(C(N)=O)ccc3C)ccc12` [Example 213, 3-[1-(4-fluoro-2-methoxyphenyl)phthalazin-6-yl]-4-methylbenzamide]: the IC50 was ≤ 5 µM.
In the case of `Cc1cc(F)ccc1Oc1nncc2cc(-c3cc(C(N)=O)ccc3C)ccc12` [Example 320, 3-[1-(4-fluoro-2-methylphenoxy)phthalazin-6-yl]-4-methylbenzamide] it was ≤ 5 µM.
For the molecule `Cc1ccc(C(=O)NC2CC2)cc1-c1ccc2c(-c3ccncc3C)nncc2c1` [Example 263, N-cyclopropyl-4-methyl-3-[1-(3-methylpyridin-4-yl)phthalazin-6-yl]benzamide], the half-maximal inhibitory concentration (IC50) is ≤ 5 µM.
Take `Cc1ccc(C(N)=O)cc1-c1ccc2c(Oc3cccnc3C)nncc2c1` [Example 300, 4-methyl-3-{1-[(2-methylpyridin-3-yl)oxy]phthalazin-6-yl}benzamide]: the IC50 is ≤ 5 µM.
Take `Cc1ccc(C(N)=O)cc1-c1ccc2c(-c3ccc(F)cc3Cl)nncc2c1` [Example 222, 3-[1-(2-chloro-4-fluorophenyl)phthalazin-6-yl]-4-methylbenzamide]: the IC50 was ≤ 5 µM.
Next, `Cc1ccc(C(=O)NC2CC2)cc1-c1ccc2c(-c3ccccc3C(F)(F)F)nncc2c1` [Example 254, N-cyclopropyl-4-methyl-3-{1-[2-(trifluoromethyl)phenyl]phthalazin-6-yl}benzamide]: ≤ 5 µM; `Cc1ccc(C(=O)NC2CC2)cc1-c1ccc2c(-c3cccnc3Cl)nncc2c1` [Example 233, 3-[1-(2-chloropyridin-3-yl)phthalazin-6-yl]-N-cyclopropyl-4-methylbenzamide]: ≤ 5 µM; `Cc1ccc(C(=O)NC2CC2)cc1-c1ccc2c(N[C@@H](C)C(=O)OC(C)(C)C)nncc2c1` [Example 191, tert-butyl N-(6-{5-[(cyclopropylamino)carbonyl]-2-methylphenyl}phthalazin-1-yl)-L-alaninate]: ≤ 5 µM.
As to `CCNC(=O)c1ccc(C)c(-c2ccc3c(N4CCOCC4)nncc3c2)c1` [Example 41, N-ethyl-4-methyl-3-(1-morpholinophthalazin-6-yl)benzamide], the IC50 was ≤ 5 µM.
As for `Cc1ccc(C(N)=O)cc1-c1ccc2c(N3C[C@@H](C)OC[C@H]3C)nncc2c1` [Example 171, 3-{1-[(2R,5R)-2,5-dimethylmorpholin-4-yl]phthalazin-6-yl}-4-methylbenzamide], the half-maximal inhibitory concentration (IC50) is ≤ 5 µM.
Turning to `Cc1ccc(C(=O)NC2CC2)cc1-c1ccc2c(N3CCC(O)(C(C)C)CC3)nncc2c1` [Example 61, N-cyclopropyl-3-(1-(4-hydroxy-4-isopropylpiperidin-1-yl)phthalazin-6-yl)-4-methylbenzamide], the IC50 was ≤ 5 µM.
Next, `Cc1ccc(C(=O)NC2CC2)cc1-c1ccc2c(N(C)C3CCCCC3)nncc2c1` [Example 289, 3-{1-[cyclohexyl(methyl)amino]phthalazin-6-yl}-N-cyclopropyl-4-methylbenzamide]: ≤ 5 µM.
In the case of `Cc1sc(C(=O)NC2CC2)cc1-c1ccc2c(N3CCOCC3)nncc2c1` [Example 80, N-Cyclopropyl-5-methyl-4-(1-morpholin-4-ylphthalazin-6-yl)thiophene-2-carboxamide] it was ≤ 5 µM; in that of `CCNc1noc2c(-c3ccc4c(NC(C)C)nncc4c3)c(C)ccc12` [Example 389, 6-[3-(ethylamino)-6-methyl-1,2-benzisoxazol-7-yl]-N-isopropylphthalazin-1-amine], ≤ 5 µM.
As to `Cc1ccccc1-c1ccc2c(N3CCOCC3c3ccc(F)cc3)nncc2c1` (stereo not shown) [Example 398, 1-[3-(4-fluorophenyl)morpholin-4-yl]-6-(2-methylphenyl)phthalazine], the concentration for half-maximal inhibition (IC50) is ≤ 5 µM.
On to `COc1c(C)cccc1-c1nncc2cc(-c3cc(C(=O)NC4CC4)ccc3C)ccc12` [Example 201, N-cyclopropyl-3-[1-(2-methoxy-3-methylphenyl)phthalazin-6-yl]-4-methylbenzamide], for which the IC50 is ≤ 5 µM.
Turning to `Cc1ccc(C(=O)NC(C)C)cc1-c1ccc2c(N3CCOCC3)nncc2c1` [Example 405, N-isopropyl-4-methyl-3-(1-morpholin-4-ylphthalazin-6-yl)benzamide], the IC50 is ≤ 5 µM.
Regarding `Cc1ccc(C(=O)NC2CC2)cc1-c1ccc2c(-c3cccs3)nncc2c1` [Example 244, N-cyclopropyl-4-methyl-3-(1-thien-2-ylphthalazin-6-yl)benzamide], the IC50 was ≤ 5 µM.
In the case of `CNc1noc2c(-c3ccc4c(N[C@@H](C)COC)nncc4c3)c(C)ccc12` [Example 399, N-[(1S)-2-methoxy-1-methylethyl]-6-[6-methyl-3-(methylamino)-1,2-benzisoxazol-7-yl]phthalazin-1-amine] it was ≤ 5 µM.
Take `Cc1ccc(C(=O)NC2CC2)cc1-c1ccc2c(N3CCN4CCC[C@H]4C3)nncc2c1` [Example 274, 3-{1-[(8aS)-hexahydropyrrolo[1,2-a]pyrazin-2(1H)-yl]phthalazin-6-yl}-N-cyclopropyl-4-methylbenzamide]: the IC50 is ≤ 5 µM.
In the case of `C[C@H]1COCCN1c1nncc2cc(-c3ccc(C(F)(F)F)c4c(NC(C)(C)C)noc34)ccc12` [Example 16, N-tert-butyl-7-(1-((S)-3-methylmorpholino)phthalazin-6-yl)-4-(trifluoromethyl)benzo[d]isoxazol-3-amine], the IC50 was ≤ 5 µM.
As to `Fc1ccc(Oc2ccc3c(N4C[C@@H]5C[C@H]4CO5)nncc3c2)cc1` [Example 350, (1S,4S)-5-[6-(4-fluorophenoxy)phthalazin-1-yl]-2-oxa-5-azabicyclo[2.2.1]heptane], the concentration for half-maximal inhibition (IC50) is ≤ 5 µM.
As for `CNc1noc2c(-c3ccc4c(NC(C)C)nncc4c3)c(C)ccc12` [Example 372, N-isopropyl-6-[6-methyl-3-(methylamino)-1,2-benzisoxazol-7-yl]phthalazin-1-amine], the IC50 is ≤ 5 µM.
In the case of `CCNC(=O)c1ccc(C)c(-c2ccc3c(NC(C)C)nncc3c2)c1` [Example 117, N-ethyl-3-[1-(isopropylamino)phthalazin-6-yl]-4-methylbenzamide] it was ≤ 5 µM.
In the case of `Cc1cc(F)ccc1-c1nncc2cc(-c3c(C)ccc4c(NC5CC5)noc34)ccc12` [Example 377, N-cyclopropyl-7-[1-(4-fluoro-2-methylphenyl)phthalazin-6-yl]-6-methyl-1,2-benzisoxazol-3-amine] it was ≤ 5 µM; in that of `CS(=O)(=O)c1ccc(-c2nncc3cc(Oc4ccc(F)cc4)ccc23)cc1` [Example 335, 6-(4-fluorophenoxy)-1-[4-(methylsulfonyl)phenyl]phthalazine], ≤ 5 µM.
